Laboratory results reported in article PMC8355244, “A fragment-based approach identifies an allosteric pocket that impacts malate dehydrogenase activity” (Communications Biology, 2021).

Biological target: T1, PfMDH (Plasmodium falciparum, UniProt Q6VVP7)
T1 construct: The full-length WT PfMDH gene was cloned into pETM-13; made in house; host or cells: E. coli Rosetta 2 (DE3) pLysS
Experiment: Thermal shift assay (TSA)
Type: binding
Conditions: for TSA melting curve raw signal: triplicate columns; for TSA melting curve raw fluorescence signal: three replicate columns
Procedure, shortened: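 10 μM PfMDH with 1 mM compound in 100 mM Na–phosphate pH 7.4, 400 mM NaCl, 10× Sypro Orange; 1% DMSO controls. Melting inflection points taken as Tm; shifts >1 °C read as stabilization, negative shifts as destabilization.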

T1 sequence (Q6VVP7 entry or part of it): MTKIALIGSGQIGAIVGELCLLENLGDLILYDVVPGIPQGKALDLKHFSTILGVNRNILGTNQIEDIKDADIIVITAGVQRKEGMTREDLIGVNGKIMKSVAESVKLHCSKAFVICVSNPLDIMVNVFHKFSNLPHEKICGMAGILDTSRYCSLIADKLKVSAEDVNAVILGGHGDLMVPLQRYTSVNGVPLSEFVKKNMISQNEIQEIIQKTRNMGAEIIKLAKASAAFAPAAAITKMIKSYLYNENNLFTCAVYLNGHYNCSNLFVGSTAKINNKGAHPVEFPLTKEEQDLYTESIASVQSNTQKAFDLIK

Nc1nc(-c2cccc(C(F)(F)F)c2)cs1 [4PA-CF3]
TSA melting curve raw signal (Temperature 25): 3528,09586476992 | TSA melting curve raw signal (Temperature 25.5): 3521,76972099321 | TSA melting curve raw signal (Temperature 26): 3515,44357721651 | TSA melting curve raw signal (Temperature 26.5): 3509,11743343981 | TSA melting curve raw signal (Temperature 27): 3502,7912896631 | TSA melting curve raw signal (Temperature 27.5): 3496,46514588642 | TSA melting curve raw signal (Temperature 28): 3490,13900210971 | TSA melting curve raw signal (Temperature 28.5): 3483,6143624971 | TSA melting curve raw signal (Temperature 29): 3476,38988350175 | TSA melting curve raw signal (Temperature 29.5): 3468,17176134374 | TSA melting curve raw signal (Temperature 30): 3458,89345122044 | TSA melting curve raw signal (Temperature 30.5): 3449,61666086928 | TSA melting curve raw signal (Temperature 31): 3441,08813548452 | TSA melting curve raw signal (Temperature 31.5): 3434,74480463775 | TSA melting curve raw signal (Temperature 32): 3431,63306422988 | TSA melting curve raw signal (Temperature 32.5): 3433,04755783933 | TSA melting curve raw signal (Temperature 33): 3439,08846015031 | TSA melting curve raw signal (Temperature 33.5): 3450,49167244057 | TSA melting curve raw signal (Temperature 34): 3467,07326310557 | TSA melting curve raw signal (Temperature 34.5): 3489,23124555062 | TSA melting curve raw signal (Temperature 35): 3516,74965348479 | TSA melting curve raw signal (Temperature 35.5): 3550,12307997406 | TSA melting curve raw signal (Temperature 36): 3588,6701161146 | TSA melting curve raw signal (Temperature 36.5): 3632,52278047685 | TSA melting curve raw signal (Temperature 37): 3681,13015232277 | TSA melting curve raw signal (Temperature 37.5): 3734,10747497721 | TSA melting curve raw signal (Temperature 38): 3790,66694872421 | TSA melting curve raw signal (Temperature 38.5): 3851,32307413445 | TSA melting curve raw signal (Temperature 39): 3915,60016677996 | TSA melting curve raw signal (Temperature 39.5): 3983,88715310611 | TSA melting curve raw signal (Temperature 40): 4056,33336034943 | TSA melting curve raw signal (Temperature 40.5): 4133,49326014565 | TSA melting curve raw signal (Temperature 41): 4215,01497025314 | TSA melting curve raw signal (Temperature 41.5): 4301,78127396551 | TSA melting curve raw signal (Temperature 42): 4393,43575455581 | TSA melting curve raw signal (Temperature 42.5): 4490,37169124646 | TSA melting curve raw signal (Temperature 43): 4592,69941738304 | TSA melting curve raw signal (Temperature 43.5): 4701,32966638299 | TSA melting curve raw signal (Temperature 44): 4815,85327556672 | TSA melting curve raw signal (Temperature 44.5): 4937,62413315095 | TSA melting curve raw signal (Temperature 45): 5067,14562465788 | TSA melting curve raw signal (Temperature 45.5): 5204,83599333482 | TSA melting curve raw signal (Temperature 46): 5349,70118139591 | TSA melting curve raw signal (Temperature 46.5): 5501,84311892238 | TSA melting curve raw signal (Temperature 47): 5660,17327748149 | TSA melting curve raw signal (Temperature 47.5): 5824,5723421521 | TSA melting curve raw signal (Temperature 48): 5994,36303099828 | TSA melting curve raw signal (Temperature 48.5): 6169,71492788648 | TSA melting curve raw signal (Temperature 49): 6349,90301622462 | TSA melting curve raw signal (Temperature 49.5): 6533,67708046246 | TSA melting curve raw signal (Temperature 50): 6718,43346697938 | TSA melting curve raw signal (Temperature 50.5): 6903,01197489117 | TSA melting curve raw signal (Temperature 51): 7086,14140810373 | TSA melting curve raw signal (Temperature 51.5): 7267,40973427596 | TSA melting curve raw signal (Temperature 52): 7446,07311090688 | TSA melting curve raw signal (Temperature 52.5): 7623,17790419487 | TSA melting curve raw signal (Temperature 53): 7798,35186729642 | TSA melting curve raw signal (Temperature 53.5): 7971,57187818721 | TSA melting curve raw signal (Temperature 54): 8142,18042787582 | TSA melting curve raw signal (Temperature 54.5): 8310,47539211232 | TSA melting curve raw signal (Temperature 55): 8475,6367965612 | TSA melting curve raw signal (Temperature 55.5): 8637,15264587991 | TSA melting curve raw signal (Temperature 56): 8794,24720730786 | TSA melting curve raw signal (Temperature 56.5): 8944,76644495546 | TSA melting curve raw signal (Temperature 57): 9087,23982318044 | TSA melting curve raw signal (Temperature 57.5): 9218,83300839243 | TSA melting curve raw signal (Temperature 58): 9336,46564098951 | TSA melting curve raw signal (Temperature 58.5): 9436,67708833889 | TSA melting curve raw signal (Temperature 59): 9517,94306567009 | TSA melting curve raw signal (Temperature 59.5): 9577,90589829803 | TSA melting curve raw signal (Temperature 60): 9615,75986877433 | TSA melting curve raw signal (Temperature 60.5): 9632,47637998784 | TSA melting curve raw signal (Temperature 61): 9629,58012627007 | TSA melting curve raw signal (Temperature 61.5): 9608,67157988917 | TSA melting curve raw signal (Temperature 62): 9572,5500875914 | TSA melting curve raw signal (Temperature 62.5): 9524,64551903011 | TSA melting curve raw signal (Temperature 63): 9467,03768559296 | TSA melting curve raw signal (Temperature 63.5): 9402,51349679748 | TSA melting curve raw signal (Temperature 64): 9333,57184164816 | TSA melting curve raw signal (Temperature 64.5): 9261,62563971527 | TSA melting curve raw signal (Temperature 65): 9187,49083186044 | TSA melting curve raw fluorescence signal (Temperature 65.5): 9112,23978010048 | TSA melting curve raw fluorescence signal (Temperature 66): 9036,14068242361 | TSA melting curve raw fluorescence signal (Temperature 66.5): 8959,64465212255 | TSA melting curve raw fluorescence signal (Temperature 67): 8882,7175782058 | TSA melting curve raw fluorescence signal (Temperature 67.5): 8805,44643012468 | TSA melting curve raw fluorescence signal (Temperature 68): 8728,2852860298 | TSA melting curve raw fluorescence signal (Temperature 68.5): 8651,13021944227 | TSA melting curve raw fluorescence signal (Temperature 69): 8573,32870649645 | TSA melting curve raw fluorescence signal (Temperature 69.5): 8495,58180428762 | TSA melting curve raw fluorescence signal (Temperature 70): 8418,5896254098 | TSA melting curve raw fluorescence signal (Temperature 70.5): 8341,60149220391 | TSA melting curve raw fluorescence signal (Temperature 71): 8265,01816022305 | TSA melting curve raw fluorescence signal (Temperature 71.5): 8189,69867306721 | TSA melting curve raw fluorescence signal (Temperature 72): 8115,16555879573 | TSA melting curve raw fluorescence signal (Temperature 72.5): 8040,74958248259 | TSA melting curve raw fluorescence signal (Temperature 73): 7967,12767450409 | TSA melting curve raw fluorescence signal (Temperature 73.5): 7893,92662128296 | TSA melting curve raw fluorescence signal (Temperature 74): 7821,33430208039 | TSA melting curve raw fluorescence signal (Temperature 74.5): 7749,70992701054 | TSA melting curve raw fluorescence signal (Temperature 75): 7679,18807246448 | TSA melting curve raw fluorescence signal (Temperature 75.5): 7609,86094414536 | TSA melting curve raw fluorescence signal (Temperature 76): 7542,08165155543 | TSA melting curve raw fluorescence signal (Temperature 76.5): 7475,0463497461 | TSA melting curve raw fluorescence signal (Temperature 77): 7409,10099573983 | TSA melting curve raw fluorescence signal (Temperature 77.5): 7344,43096825342 | TSA melting curve raw fluorescence signal (Temperature 78): 7280,55827608543 | TSA melting curve raw fluorescence signal (Temperature 78.5): 7217,66024170967 | TSA melting curve raw fluorescence signal (Temperature 79): 7156,47260834302 | TSA melting curve raw fluorescence signal (Temperature 79.5): 7096,07409325447 | TSA melting curve raw fluorescence signal (Temperature 80): 7036,61045690039 | TSA melting curve raw fluorescence signal (Temperature 80.5): 6978,28713486927 | TSA melting curve raw fluorescence signal (Temperature 81): 6920,87145232924 | TSA melting curve raw fluorescence signal (Temperature 81.5): 6863,63731764689 | TSA melting curve raw fluorescence signal (Temperature 82): 6807,28937755567 | TSA melting curve raw fluorescence signal (Temperature 82.5): 6751,29328141381 | TSA melting curve raw fluorescence signal (Temperature 83): 6695,78422169472 | TSA melting curve raw fluorescence signal (Temperature 83.5): 6641,03413791343 | TSA melting curve raw fluorescence signal (Temperature 84): 6587,1569082437 | TSA melting curve raw fluorescence signal (Temperature 84.5): 6533,84298175497 | TSA melting curve raw fluorescence signal (Temperature 85): 6481,33407729233 | TSA melting curve raw fluorescence signal (Temperature 85.5): 6429,30339853042 | TSA melting curve raw fluorescence signal (Temperature 86): 6377,40763821637 | TSA melting curve raw fluorescence signal (Temperature 86.5): 6325,81148238932 | TSA melting curve raw fluorescence signal (Temperature 87): 6274,52300647726 | TSA melting curve raw fluorescence signal (Temperature 87.5): 6222,85213595833 | TSA melting curve raw fluorescence signal (Temperature 88): 6171,16491119654 | TSA melting curve raw fluorescence signal (Temperature 88.5): 6119,12156951999 | TSA melting curve raw fluorescence signal (Temperature 89): 6066,61924971662 | TSA melting curve raw fluorescence signal (Temperature 89.5): 6013,73939632859 | TSA melting curve raw fluorescence signal (Temperature 90): 5961,79604131278 | TSA melting curve raw fluorescence signal (Temperature 90.5): 5910,31866711244 | TSA melting curve raw fluorescence signal (Temperature 91): 5859,96386783167 | TSA melting curve raw fluorescence signal (Temperature 91.5): 5810,60393842017 | TSA melting curve raw fluorescence signal (Temperature 92): 5761,96047868944 | TSA melting curve raw fluorescence signal (Temperature 92.5): 5713,35101332965 | TSA melting curve raw fluorescence signal (Temperature 93): 5664,77915169386 | TSA melting curve raw fluorescence signal (Temperature 93.5): 5615,83290965879 | TSA melting curve raw fluorescence signal (Temperature 94): 5566,24729616446 | TSA melting curve raw fluorescence signal (Temperature 94.5): 5516,6627489992 | TSA melting curve raw fluorescence signal (Temperature 95): 5465,82751388956
